Patent publication US20260365670A1, “EGFR INHIBITORS AND USES THEREOF” (DIZAL (JIANGSU) PHARMACEUTICAL CO., LTD., priority 2022, published 2026)
Where two headings read alike, the source gives them in different places.

Assays:
EGFR[T790M/C797S/L858R] = target: T1, EGFR[T790M/C797S/L858R] (Homo sapiens, UniProt P00533, C797S/L858R/T790M); test: Inhibition of EGFR[T790M/C797S/L858R] biochemical enzymatic activity (HTRF); conditions: EGFR[T790M/C797S/L858R], 1 mM ATP, 1 h at room temperature
T1 construct: purchased Carna Bio
Procedure, shortened: (§1)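 Time-resolved FRET assay of EGFR substrate phosphorylation. Conditions: 1 μM TK substrate-biotin, 1 mM ATP, Mg/Mn buffer, 1 h at RT. IC50 from 4-parameter curve fit.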

[1] = tested on: Ba/F3 cells expressing EGFR mutations; test: Cell proliferation assay, Ba/F3 cells expressing EGFR mutations (CellTiter-Glo, 72 hours); assay type: cell-based; conditions: Mus musculus, BaF3, 72 h
Procedure, shortened: (§2)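 GI50 is the concentration giving 50% proliferation inhibition. Growth for this was normalised to a baseline viability reading taken when compound was added, and to DMSO wells. PC-9 (500 cells/well) and mutant-EGFR Ba/F3 (5000 cells/well) are treated after overnight seeding in RPMI1640-based medium.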

EGFR (C797S L858R) = target: T2, EGFR (C797S L858R) (Homo sapiens, UniProt P00533, C797S/L858R); test: Inhibition of EGFR (C797S L858R) biochemical enzymatic activity (HTRF); conditions: EGFR (C797S L858R), 1 mM ATP, 1 h at room temperature
T2 construct: purchased signalchem
Procedure, shortened: as §1

EGFR wild type = target: T3, EGFR wild type (Homo sapiens, UniProt P00533); test: Inhibition of EGFR wild type biochemical enzymatic activity (HTRF); conditions: EGFR wild type, 1 mM ATP, 1 h at room temperature
T3 construct: purchased Carna Bio
Procedure, shortened: as §1

[2] = target: T4, EGFR[T790M/C797S/d746-750] (Homo sapiens, UniProt P00533, C797S/DEL746-750/T790M); test: Inhibition of EGFR[T790M/C797S/d746-750] biochemical enzymatic activity (HTRF); conditions: 1 mM ATP, 1 h at room temperature
T4 construct: purchased Carna Bio
Procedure, shortened: as §1

EGFR L858R = target: T5, EGFR L858R (Homo sapiens, UniProt P00533, L858R); test: Inhibition of EGFR L858R biochemical enzymatic activity (HTRF); conditions: 1 mM ATP, 1 h at room temperature
T5 construct: purchased Carna Bio
Procedure, shortened: as §1

EGFR Exon19Del/T790M = target: T6, EGFR Exon19Del/T790M (Homo sapiens, UniProt P00533, DEL746-750/T790M); test: Inhibition of EGFR Exon19Del/T790M biochemical enzymatic activity (HTRF); conditions: EGFR Exon19Del/T790M, 1 mM ATP, 1 h at room temperature
T6 construct: purchased Carna Bio
Procedure, shortened: as §1

A-431 = test: Cell proliferation assay, A-431 cells (GI50, Table 6); assay type: cell-based; conditions: Homo sapiens, A-431, A-431 cells
EGFR Exon19Del = target: T7, EGFR Exon19Del (Homo sapiens, UniProt P00533, DEL746-750); test: Inhibition of EGFR Exon19Del biochemical enzymatic activity (HTRF); conditions: 1 mM ATP, 1 h at room temperature
T7 construct: purchased Carna Bio
Procedure, shortened: as §1

EGFR L858R/T790M = target: T8, EGFR L858R/T790M (Homo sapiens, UniProt P00533, L858R/T790M); test: Inhibition of EGFR L858R/T790M biochemical enzymatic activity (HTRF); conditions: EGFR L858R/T790M, 1 mM ATP, 1 h at room temperature
T8 construct: purchased Carna Bio
Procedure, shortened: as §1

EGFR (d746-750 C797S) = target: T9, EGFR (d746-750 C797S) (Homo sapiens, UniProt P00533, C797S/DEL746-750); test: Inhibition of EGFR (d746-750 C797S) biochemical enzymatic activity (HTRF); conditions: EGFR (d746-750 C797S), 1 mM ATP, 1 h at room temperature
T9 construct: purchased signalchem
Procedure, shortened: as §1

PC-9 = test: Cell proliferation assay, PC-9 cells (CellTiter-Glo, 72 hours); assay type: cell-based; conditions: Homo sapiens, PC-9, 72 h, PC9 cells, read-out: GI50 PC9
Procedure, shortened: as §2

[3] = BaF3 cells, EGFR DEL19 - C797S, read-out: GI50 DEL19 - C797S/BaF3
[4] = BaF3 cells, EGFR DEL19 - T790-C797S, read-out: GI50 DEL19 - T790-C797S/BaF3
[5] = BaF3 cells, EGFR L858R - C797S, read-out: GI50 L858R - C797S/BaF3
[6] = BaF3 cells, EGFR L858R - T790-C797S, read-out: GI50 L858R - T790-C797S/BaF3
[7] = BaF3 cells, EGFR L858R - T790M, read-out: GI50 L858R - T790M/BaF3
[8] = BaF3 cells, EGFR L858R, read-out: GI50 L858R/BaF3
[9] = EGFR DEL19 - T790M, read-out: GI50 DEL19 - T790M

T6 sequence (P00533 with tags, fused parts or gaps DEL746-750/T790M limits assumed): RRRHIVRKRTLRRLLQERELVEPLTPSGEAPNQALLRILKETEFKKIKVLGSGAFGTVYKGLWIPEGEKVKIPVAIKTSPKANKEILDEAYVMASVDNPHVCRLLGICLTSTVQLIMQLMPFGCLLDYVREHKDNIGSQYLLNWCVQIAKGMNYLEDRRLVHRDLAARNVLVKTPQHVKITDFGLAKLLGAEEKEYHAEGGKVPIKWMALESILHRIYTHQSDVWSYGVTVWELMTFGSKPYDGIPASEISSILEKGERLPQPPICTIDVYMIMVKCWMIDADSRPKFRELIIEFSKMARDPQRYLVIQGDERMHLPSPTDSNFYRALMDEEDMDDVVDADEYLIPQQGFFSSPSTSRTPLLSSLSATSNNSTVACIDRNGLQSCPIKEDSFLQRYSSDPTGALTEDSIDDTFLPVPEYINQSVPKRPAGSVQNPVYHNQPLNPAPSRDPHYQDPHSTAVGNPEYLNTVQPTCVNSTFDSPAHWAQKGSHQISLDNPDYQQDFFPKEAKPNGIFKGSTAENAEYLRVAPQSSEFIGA
T4 sequence (P00533 with tags, fused parts or gaps DEL746-750/T790M/C797S limits assumed): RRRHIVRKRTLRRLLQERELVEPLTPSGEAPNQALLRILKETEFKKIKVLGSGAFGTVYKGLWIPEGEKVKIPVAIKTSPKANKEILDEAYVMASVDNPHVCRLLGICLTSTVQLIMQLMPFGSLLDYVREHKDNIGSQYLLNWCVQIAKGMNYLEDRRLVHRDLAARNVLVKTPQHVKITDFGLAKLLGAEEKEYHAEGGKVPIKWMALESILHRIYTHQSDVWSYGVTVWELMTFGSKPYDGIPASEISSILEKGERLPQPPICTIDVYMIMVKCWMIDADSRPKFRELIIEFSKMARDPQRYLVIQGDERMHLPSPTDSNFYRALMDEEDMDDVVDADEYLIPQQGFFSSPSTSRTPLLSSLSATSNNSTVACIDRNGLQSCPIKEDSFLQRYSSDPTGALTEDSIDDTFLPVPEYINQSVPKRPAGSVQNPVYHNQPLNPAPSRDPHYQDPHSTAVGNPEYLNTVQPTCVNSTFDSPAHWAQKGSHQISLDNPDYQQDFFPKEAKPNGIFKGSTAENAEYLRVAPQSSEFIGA
T5 sequence (P00533 25-1210 L858R): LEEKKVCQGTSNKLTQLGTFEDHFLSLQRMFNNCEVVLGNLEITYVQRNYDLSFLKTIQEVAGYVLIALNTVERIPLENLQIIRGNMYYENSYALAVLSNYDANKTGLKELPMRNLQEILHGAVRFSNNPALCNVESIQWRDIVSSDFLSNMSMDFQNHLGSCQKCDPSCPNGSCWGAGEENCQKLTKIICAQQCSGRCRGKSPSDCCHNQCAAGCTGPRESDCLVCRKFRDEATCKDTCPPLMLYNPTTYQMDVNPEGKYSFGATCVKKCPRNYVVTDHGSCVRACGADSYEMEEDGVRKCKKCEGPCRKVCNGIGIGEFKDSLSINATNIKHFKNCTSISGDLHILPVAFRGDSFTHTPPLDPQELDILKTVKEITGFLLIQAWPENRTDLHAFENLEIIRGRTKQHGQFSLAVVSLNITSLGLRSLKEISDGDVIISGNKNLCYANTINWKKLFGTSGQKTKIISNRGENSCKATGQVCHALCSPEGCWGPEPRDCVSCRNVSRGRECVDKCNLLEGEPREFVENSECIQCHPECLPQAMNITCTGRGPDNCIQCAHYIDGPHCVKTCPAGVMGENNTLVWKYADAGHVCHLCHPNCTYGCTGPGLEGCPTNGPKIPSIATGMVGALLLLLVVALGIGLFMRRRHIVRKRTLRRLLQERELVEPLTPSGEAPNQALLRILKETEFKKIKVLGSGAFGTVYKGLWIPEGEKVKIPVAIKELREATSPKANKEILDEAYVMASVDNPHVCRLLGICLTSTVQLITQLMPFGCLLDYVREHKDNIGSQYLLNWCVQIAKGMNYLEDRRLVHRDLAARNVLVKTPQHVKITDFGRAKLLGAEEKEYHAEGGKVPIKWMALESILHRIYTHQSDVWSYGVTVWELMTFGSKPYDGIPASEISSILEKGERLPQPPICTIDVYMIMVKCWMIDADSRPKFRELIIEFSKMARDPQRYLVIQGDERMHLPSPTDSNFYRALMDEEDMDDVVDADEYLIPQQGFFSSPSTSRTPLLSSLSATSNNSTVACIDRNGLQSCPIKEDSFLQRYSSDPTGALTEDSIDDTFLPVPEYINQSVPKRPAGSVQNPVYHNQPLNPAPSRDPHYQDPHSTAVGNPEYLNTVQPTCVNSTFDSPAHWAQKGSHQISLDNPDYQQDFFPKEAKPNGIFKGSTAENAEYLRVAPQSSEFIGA
T8 sequence (P00533 25-1210 T790M/L858R): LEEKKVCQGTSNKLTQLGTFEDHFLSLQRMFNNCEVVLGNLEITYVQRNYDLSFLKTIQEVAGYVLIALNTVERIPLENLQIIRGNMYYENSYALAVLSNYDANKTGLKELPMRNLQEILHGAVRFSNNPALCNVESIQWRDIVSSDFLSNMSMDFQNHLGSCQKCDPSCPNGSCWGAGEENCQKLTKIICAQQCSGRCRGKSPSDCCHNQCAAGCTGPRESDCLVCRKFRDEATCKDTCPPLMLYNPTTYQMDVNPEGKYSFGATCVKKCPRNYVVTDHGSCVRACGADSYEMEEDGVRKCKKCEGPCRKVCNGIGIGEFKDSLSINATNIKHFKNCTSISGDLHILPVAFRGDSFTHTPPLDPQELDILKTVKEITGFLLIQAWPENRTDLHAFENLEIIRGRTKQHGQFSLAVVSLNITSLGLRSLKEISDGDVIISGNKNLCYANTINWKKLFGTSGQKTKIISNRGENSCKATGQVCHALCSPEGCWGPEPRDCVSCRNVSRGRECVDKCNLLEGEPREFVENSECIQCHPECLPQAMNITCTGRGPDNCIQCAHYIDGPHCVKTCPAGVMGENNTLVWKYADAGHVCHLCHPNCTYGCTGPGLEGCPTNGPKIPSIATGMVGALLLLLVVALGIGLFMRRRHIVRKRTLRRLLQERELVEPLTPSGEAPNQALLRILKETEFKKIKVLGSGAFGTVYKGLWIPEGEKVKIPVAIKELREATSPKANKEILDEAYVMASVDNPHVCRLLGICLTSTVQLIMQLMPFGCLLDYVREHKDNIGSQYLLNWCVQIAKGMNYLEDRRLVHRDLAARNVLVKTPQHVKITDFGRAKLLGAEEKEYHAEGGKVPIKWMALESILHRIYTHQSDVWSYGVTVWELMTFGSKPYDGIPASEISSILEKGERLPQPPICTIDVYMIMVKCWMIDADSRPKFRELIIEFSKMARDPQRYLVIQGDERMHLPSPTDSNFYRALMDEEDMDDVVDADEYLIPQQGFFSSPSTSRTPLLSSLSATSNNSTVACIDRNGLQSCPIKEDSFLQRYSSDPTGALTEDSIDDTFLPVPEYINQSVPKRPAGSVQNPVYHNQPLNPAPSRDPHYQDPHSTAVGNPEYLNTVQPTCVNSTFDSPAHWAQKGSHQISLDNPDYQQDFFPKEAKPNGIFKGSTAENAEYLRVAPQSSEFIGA
T2 sequence (P00533 25-1210 C797S/L858R): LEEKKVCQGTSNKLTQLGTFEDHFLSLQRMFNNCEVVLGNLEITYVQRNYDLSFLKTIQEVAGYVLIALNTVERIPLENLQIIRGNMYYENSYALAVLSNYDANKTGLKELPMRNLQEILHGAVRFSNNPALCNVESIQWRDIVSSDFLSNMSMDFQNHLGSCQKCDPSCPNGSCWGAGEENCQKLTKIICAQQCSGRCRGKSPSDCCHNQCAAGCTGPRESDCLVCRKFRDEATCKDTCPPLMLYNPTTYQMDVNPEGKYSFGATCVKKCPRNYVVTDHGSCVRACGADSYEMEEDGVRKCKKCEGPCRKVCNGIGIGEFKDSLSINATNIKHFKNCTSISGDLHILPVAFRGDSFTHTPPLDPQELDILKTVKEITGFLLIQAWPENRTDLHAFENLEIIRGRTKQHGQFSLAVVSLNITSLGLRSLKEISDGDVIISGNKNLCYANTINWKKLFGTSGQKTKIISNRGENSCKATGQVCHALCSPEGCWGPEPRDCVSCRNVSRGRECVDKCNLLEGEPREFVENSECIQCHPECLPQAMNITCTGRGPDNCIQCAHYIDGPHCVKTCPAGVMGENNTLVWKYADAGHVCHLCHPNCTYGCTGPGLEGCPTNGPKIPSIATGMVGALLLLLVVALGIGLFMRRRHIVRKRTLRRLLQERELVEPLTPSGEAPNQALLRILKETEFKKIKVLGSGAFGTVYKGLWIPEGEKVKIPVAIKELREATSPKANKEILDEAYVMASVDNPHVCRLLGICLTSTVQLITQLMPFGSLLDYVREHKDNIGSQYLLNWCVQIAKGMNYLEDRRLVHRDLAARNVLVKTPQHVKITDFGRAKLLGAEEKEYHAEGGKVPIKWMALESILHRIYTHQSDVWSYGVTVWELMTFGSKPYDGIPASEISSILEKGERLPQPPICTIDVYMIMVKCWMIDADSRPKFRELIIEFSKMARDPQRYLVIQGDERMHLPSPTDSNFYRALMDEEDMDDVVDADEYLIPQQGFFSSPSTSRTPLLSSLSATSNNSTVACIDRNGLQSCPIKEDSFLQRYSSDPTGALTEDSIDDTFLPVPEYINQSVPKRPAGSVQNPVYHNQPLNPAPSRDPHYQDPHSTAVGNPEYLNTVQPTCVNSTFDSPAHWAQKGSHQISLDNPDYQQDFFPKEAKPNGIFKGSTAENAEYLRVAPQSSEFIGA

SMILES	GI50 [1, 3] [nM]	GI50 [1, 4] [nM]	GI50 [1, 5] [nM]	GI50 [1, 6] [nM]	GI50 [1, 7] [nM]	GI50 [1, 8] [nM]	GI50 [1, 9] [nM]	GI50 (A-431) [µM]	GI50 (PC-9) [nM]	other results
Cc1cc2cc(n1)-c1cnn(C)c1OCCN1CC3CCC(CC3)(C1)n1c(nc3ccc(N4CCC(N(C)C)CC4)cc31)NC2=O [Example B27, 5-[4-(dimethylamino)piperidin-1-yl]-15,21-dimethyl-23-oxa-2,9,11,16,20,21,26-heptaazaheptacyclo[26.2.2.1^{1,26}.1^{13,17}.0^{2,10}.0^{3,8}.0^{18,22}]tetratriaconta-3,5,7,9,13,15,17(34),18(22),19-nonaen-12-one]	2	2	22	2	5	17	2	3.6	19	IC50 (EGFR[T790M/C797S/L858R]; IC50 @T790M- C797S - L858R): 3.8 nM; IC50 (EGFR (C797S L858R); IC50 @L858-C797S): 30 nM; IC50 (EGFR wild type; IC50 @WT): 3.54 µM; IC50 ([2]; IC50 @T790M - C797S - Del19, EGFR[T790M/C797S/d746-750]): 3.1 nM; IC50 (EGFR L858R; IC50 @L858R): 67 nM; IC50 (EGFR Exon19Del/T790M; IC50 @Del19-T790M): 8.3 nM; IC50 (EGFR Exon19Del; IC50 @Del19, EGFR Exon19Del): 11 nM; IC50 (EGFR L858R/T790M; IC50 @L858R-T790M): 8.3 nM; IC50 (EGFR (d746-750 C797S); IC50 @Del19-C797S): 6.3 nM
Cc1cc2cc(n1)-c1cnn(C)c1OCCN1CC3CCC(CC3)(C1)n1c(nc3ccc(N4CCN(C5CC5)CC4)cc31)NC2=O [Example B36]	27	8	234	15	29	200	10	3.42	186	IC50 (EGFR[T790M/C797S/L858R]; read-out: IC50 @T790M- C797S - L858R): 2.9 nM; IC50 (EGFR (C797S L858R); read-out: IC50 @L858-C797S): 159 nM; IC50 (EGFR wild type; read-out: IC50 @WT): > 5 µM; IC50 ([2]; EGFR[T790M/C797S/d746-750], read-out: IC50 @T790M - C797S - Del19): 3.7 nM; IC50 (EGFR L858R; read-out: IC50 @L858R): 734 nM; IC50 (EGFR Exon19Del/T790M; read-out: IC50 @Del19-T790M): 5.8 nM; IC50 (EGFR Exon19Del; EGFR Exon19Del, read-out: IC50 @Del19): 24 nM; IC50 (EGFR L858R/T790M; read-out: IC50 @L858R-T790M): 7.6 nM; IC50 (EGFR (d746-750 C797S); read-out: IC50 @Del19-C797S): 10 nM
